Reference: patent US20050267030A1, “Use of deltaPKC peptides for modulation of reactive oxygen species” (priority 2004, published 2005)
Ends that are not written are not given here.

Assays:
[1] = tested on: Zucker obese rats (fa/fa); experiment: ROS (superoxide) production in aorta tissue homogenates of Zucker rats, electron spin resonance; type: in vivo, rat; details: Zucker obese rats treated, versus Zucker lean control, FIG. 3A
Experimental: Tissue homogenates from the aortas of Zucker obese rats and of Zucker lean (Fa/fa) rats were prepared and analyzed for superoxide production using electron spin resonance with a tempomaine probe.

[2] = tested on: rat vascular smooth muscle cells; experiment: Production of reactive oxygen species (superoxide) in vitro, loss of tempoamine signal by electron spin resonance; type: cell-based; details: FIG. 2
Experimental: Example 1 details a study where inhibitors and activators of δPKC were administered to rat vascular smooth muscle cells in vitro. Cells were incubated in presence of (1) the agonist Tat-conjugated peptide ψδRACK (SEQ ID NO:5); (2) phorbol 12-myristate 13-acetate (PMA); or (3) the antagonist Tat-conjugated peptide δV1-1 (SEQ ID NO:3) plus PMA. A control cell sample was left untreated. Tempoamine ((2,2,6,6-tetramethyl-1-piperidi-nyloxy-4-amine)) was added to each culture and the loss of tempoamine signal was measured by electron spin resonance to measure superoxide production.
PMA, a non-isozyme specific activator of PKC, stimulated a 3-4 fold increase in ROS in the cells. […] Inhibition of this PKC isoform caused a decrease in PMA-stimulated ROS production.
Rat vascular smooth muscle cells were harvested from Zucker lean aortas by enzymatic digestion and cultured in Dulbecco's modified eagle's medium with 10% fetal bovine serum and penicillin/streptomycin under standard tissue culture conditions. The cells were incubated in the presence tempoamine ((2,2,6,6-tetramethyl-1-piperidi-nyloxy4-amine)) (100 μM) and in the presence of (1) the agonist Tat-conjugated peptide ψδRACK (10 μM); (2) phorbol 12-myristate 13-acetate (PMA, 500 ng/mL); or (3) the antagonist Tat-conjugated peptide δV1-1 (10 μM) plus PMA (500 ng/mL). A control cell sample was left untreated. The loss of tempoamine signal was measured by electron spin resonance to measure superoxide production.

[3] = tested on: TGF-β1; experiment: TGF-β1 gene expression in rat vascular smooth muscle cells, TaqMan real time PCR; type: cell-based
Experimental: (§1) In another study, described in Example 4, the gene transcriptional effects of insulin and the selective inhibition of PKC isoforms was examined using real-time polymerase chain reaction (TaqMan® PCR). In vitro cells were incubated with insulin and in the presence or absence of a δPKC inhibitor, δV1-1 peptide. The expression of TGF-β and core binding factor α-1 (Cbf α-1) were monitored using TaqMan® real time PCR. Rat vascular smooth muscle cells passages three through seven were prepared as describe in Example 1B. The cells were incubated with insulin (100 nm, SourceLife Technologies) or with the δPKC inhibitor peptide δV1-1, prepared as described in Example 1A. RNA isolation and purification were performed as described in Example 2 and TaqMan® real time PCR was used to analyze the relative quantity TGF-β1 and core binding factor α-1 (Cbf α-1). PCR primers and probes were obtained commercially from Applied Biosystems, Inc. and the PCR was performed on an Applied Biosystems ABI Prism 7700.

[4] = tested on: Cbfa-1; experiment: Cbfa-1 gene expression in rat vascular smooth muscle cells, TaqMan real time PCR; type: cell-based; details: cells incubated with Tat-conjugated peptide versus untreated control, FIG. 5C
Experimental: as §1

[5] = tested on: δPKC; experiment: Translocation of δPKC in cells incubated with insulin, Western blot of cytosol and membrane fractions; type: cell-based, rat; details: bovine insulin 100 nM, up to 24 hours, semi-quantitative from Western blot, FIG. 4B
Experimental: Example 3 describes a study conducted to examine to role of PKC isozymes, and in particular δPKC, in vascular fibrosis, which is accelerated during the insulin-resistant, pre-diabetic state in animals. In this study, rat vascular smooth muscle cells were incubated with bovine insulin. Translocation of PKC isozymes was assessed by Western blot analysis of the cystosolic and membrane (particulate) fractions of the cells. The subcellular localization of various PKC isozymes was assessed by […] by probing the blot with isozyme specific antibodies, such as anti-δPKC, anti-αPKC, and anti-ε PKC, etc. […]
Rat vascular smooth muscle cells passages three through seven were prepared as described in Example 1 B. The cells were incubated with bovine insulin (100 nM) for time periods of up to 24 hours. Activation of various PKC isozymes was analyzed by harvesting the cells and separating the protein into cytosolic and membrane (particulate) fractions and examining both fractions by Western blot using anti-δPKC, anti-αPKC, and anti-ε PKC for the presence of different PKC isoforms. The activity of the isoform was assessed as amount of PKC in the membrane fraction divided by the total amount of protein in both fractions (cytosol and membrane), normalized to control.

For O=C1CSC(=O)N1 [TZD1], which “ROS production in aorta homogenates” value [1] is on record?
Its value is “brought the ROS production down to control levels”.

Which results are given for “SFNSYELGSL (not fully specified; also: Tat conjugated; listed as Rattus norvegicus) [δV1-1, δPKC antagonist peptide, amino acids 8-17 of δPKC]”?
ROS production stimulated by PMA ([2]; Tat-conjugated peptide 10 μM co-incubated with PMA 500 ng/mL): effective to reverse or inhibit a significant part of the ROS production stimulated by PMA; TGF-β1 expression ([3]; cells incubated with Tat-conjugated peptide versus untreated control, FIG. 5B): inhibited; Cbfa-1 gene expression [4]: inhibited

For CCCCCCCCCCCCCC(=O)O[C@@H]1[C@@H](C)[C@@]2(O)[C@@H](C=C(CO)C[C@]3(O)C(=O)C(C)=C[C@@H]23)[C@@H]2C(C)(C)[C@]12OC(C)=O [PMA, phorbol 12-myristate 13-acetate, reference compound], which “increase in ROS in the cells” value ([2]; PMA 500 ng/mL, tempoamine 100 μM) is on record?
Its value is 3-4 fold.

With “insulin: bovine insulin incubated with rat vascular smooth muscle cells” as the compound, how does the “relative δPKC activity (membrane fraction / total, normalized to control)” value [5] read?
Its value is “about 1.7”.

And the “normalized TGF-β expression” value ([3]; cells incubated with insulin (100 nm) versus untreated control, FIG. 5A)?
The value was “did not appear to stimulate”.

“MRAAEDPM (not fully specified; also: Tat conjugated; listed as Rattus norvegicus) [ψδRACK, δPKC agonist peptide, amino acids 74-81 of δPKC]” was tested. Which “production of ROS” value ([2]; Tat-conjugated peptide 10 μM, tempoamine 100 μM, versus untreated control) did it give?
Its value is “increased production of ROS”.
